Test results from patent US7897637B2, “Methods of using flavonoids to enhance memory” (The Salk Institute for Biological Studies, priority 2006, dated 2011).
“Also recorded” adds a separate entry of the source. Read-outs that look alike come from different tables or passages of the source.

Legend:
[1] = test system: HT22 cells; experiment: Protection of HT22 cells from oxidative glutamate toxicity (MTT assay); format: cell-based, mouse; conditions: for EC50 / Emax: 5 mM glutamate, MTT assay; for EC50: read-out: EC50 (μM), protection from oxidative-stress induced death; for Emax: HT-22, read-out: Maximal Efficacy, protection from oxidative-stress induced death; for effect of higher levels of BSO on protection: 5 mM glutamate + 1 mM BSO
From the text: Fisetin is effective at protecting nerve cells from oxidative stress-induced death (Ishige et al., Free Radic. Biol. Med., 30:433-446, 2001). This Example illustrates the structure-activity relationship between fisetin derivatives and neuroprotection in a model of oxidative glutamate toxicity using mouse HT22 cells. This pathway of programmed cell death is initiated by the addition of glutamate to the extracellular medium. Glutamate inhibits the uptake of cystine which is required for glutathione (GSH) biosynthesis, resulting in the depletion of GSH in neurons (for review see Tan et al., Curr. Top. Med. Chem., 1:497-506, 2001). Subsequently, this decrease in cellular GSH results in the production of reactive oxygen species (ROS) by mitochondria. The ROS accumulation then causes Ca^+2 influx from the extracellular medium which leads to cell death.
HT22 cells were untreated (Ct) or treated with 10 μM fisetin, 25 μM 3,3′-DHF, 25 μM 3,4′-DHF, 2.5 μM 3′,4′-DHF, 2.5 μM 3,3′,4′-THF 25 μM 3,7,3′-THF, 25 μM 3,7,4′-THF or 10 μM 7,3′,4′-THF in the presence of 5 mM glutamate±50 μM PD98059. Twenty four (24) hours later cell survival was measured by the MTT assay.
HT22 cells were untreated (Ct) or treated with 10 μM fisetin, 25 μM 3,3′-DHF. […] Protection by all of the other flavonoids was unaffected by BSO.
Cell viability was determined by a modified version of the 3-(4,5-dimethylthiazol-2-yl)-2,5-diphenyl tetrazolium bromide (MTT) assay based on the standard procedure (Hansen et al., J. Immunol. Meth., 119:203-10, 1989). Briefly, cells were seeded onto 96-well microtiter plates at a density of 5×10^3 cells per well. The next day, the medium was replaced with DMEM supplemented with 7.5% DFCS and the cells were treated with the different flavonoids alone or in the presence of 5 mM glutamate. Twenty four hours later, the medium in each well was aspirated and replaced with fresh medium containing 2.5 μg/ml MTT. After 4 hours of incubation at 37° C., cells were solubilized with 100 μl of a solution containing 50% dimethylformamide and 20% SDS (pH 4.7). The absorbance at 570 nm was measured on the following day with a microplate reader (Molecular Devices). Results obtained from the MTT assay correlated directly with the extent of cell death as confirmed visually. Controls employing wells without cells were used to determine the effects of the agents upon the assay chemistry.

[2] = Trolox Equivalent Activity Concentration (ABTS decolorization assay); conditions: Trolox as reference
Method: To determine if the protection seen with the different fisetin derivatives correlated with their antioxidant properties, their Trolox Equivalent Activity Concentration (TEAC) values were determined. In this procedure, a compound is compared to Trolox, a water-soluble vitamin E analog, for its ability to reduce the radical cation of ABTS in aqueous solution. As reported previously, fisetin has a TEAC value of ˜3 (Table II). None of the derivatives had TEAC values in this range despite, in some cases, showing better protection against oxidative stress-induced death. Thus, there was no correlation with antioxidant activity as defined by TEAC value and protection in this system.
TEAC values for the flavonoids were determined according to (Re et al. Free Rad. Biol. Med., 26:1231-7, 1999) but modified for a plate reader. Briefly, 250 μl of 2,2′-azinobis(3-ethylbenzothiazoline 6-sulfonate)(ABTS) treated overnight with potassium persulfate and diluted to an OD of ˜0.7 at 734 nm was added to 2.5 μl of a flavonoid solution in ethanol. The change in absorbance due to the reduction of the ABTS radical cation was measured at 734 nm for 4 minutes. To calculate the TEAC, the gradient of the plot of the percentage inhibition of absorbance vs. concentration for the flavonoid in question is divided by the gradient of the plot for Trolox.

[3] = test system: Nrf2 and HO-1; experiment: Nrf2 and HO-1 induction in HT22 cells (immunoblotting); format: cell-based, mouse; conditions: for increasing the levels of Nrf2 and inducing HO-1 synthesis: HT22 cells, 10-25 μM, 4 hours (Nrf2), 24 hours (HO-1)
Method: Since the ability to activate the ARE could be important for some of the beneficial effects of flavonoids such as fisetin, it was determined which, if any, of the fisetin derivatives could activate the ARE and induce the synthesis of downstream proteins such as HO-1. HT22 cells were untreated (control) or treated with 10 μM fisetin, 25 μM 3,3′DHF, 25 μM 3,4′-DHF, 10 μM 3′,4′-DHF, 10 μM 3,3′,4′-THF, 25 μM 3,7,3′-THF, 25 μM 3,7,4′-THF or 10 μM 7,3′,4′-THF for 4 hours. Nuclei were prepared and equal amounts of protein were analyzed by SDS-PAGE and immunoblotting with anti-Nrf-2 antibodies.
ERK activation is implicated in the induction of Nrf2 by certain stimuli in some cell types. To determine if ERK activation plays a role in the induction of Nrf2 and HO-1 by fisetin and its derivatives, cells were pretreated with PD98059 prior to the addition of the flavonoids to the cells. HT22 cells then were untreated (control) or treated for 24 hours with 10 μM fisetin, 25 μM 3,3′-DHF, 25 μM 3,4′-DHF, 10 μM 3′,4′-DHF, 10 μM 3,3′,4′-THF, 25 μM 3,7,3′-THF, 25 μM 3,7,4′-THF or 10 μM 7,3′,4′-THF. Cell lysates were prepared and equal amounts of cellular protein were analyzed by SDS-PAGE and immunoblotting with anti-HO-1 antibodies. Immunoblotting with anti-actin was used as a loading control.
For immunoblotting of HO-1, untreated and flavonoid-treated HT22 cells from the same density cultures as used for the cell death assays were washed twice in cold phosphate-buffered saline (PBS) then scraped into lysis buffer containing 50 mM HEPES, pH 7.4, 150 mM NaCl, 50 mM NaF, 1.5 mM MgC2, 1 mM EGTA, 10% glycerol, 1% Triton X-100, 10 mM sodium pyrophosphate, 1 mM Na3VO4, 1 mM phenylmethylsulfonyl fluoride (PMSF), 15 μg/ml aprotinin, 1 μg/ml pepstatin, and 5 μg/ml leupeptin. Lysates were incubated at 4° C. for 30 minutes, and then cleared by centrifugation at 14,000 rpm for 10 minutes. For immunoblotting of Nr12, nuclear extracts were prepared as described (Schreiber et al., Nuc. Acids Res., 17:6419, 1989) from untreated and flavonoid-treated cells. […] Protein concentrations were determined using the BCA protein assay (Pierce). Equal amounts of protein were solubilized in 2.5×SDS sample buffer, separated on 10% SDS polyacrylamide gels and transferred to nitrocellulose. The primary antibodies used were: anti-Nrf2 (#SC13032; 1/1000) from Santa Cruz Biotechnology (Santa Cruz, Calif.) and anti-HO-1 (#SPA-896; 1/5000) from Stressgen (Victoria, BC Canada).

[4] = Mus musculus, HT-22, 24 h, HT22 cells, 24 hours
[5] = Mus musculus, HT22 cells, 24 hours

Row | SMILES | effect of low levels of BSO on protection ([1]; 5 mM glutamate + 50 μM BSO, 24 hours, MTT) | EC50 ([1]; HT22 cells, 24 hours) [µM] | protection from oxidative stress-induced death ([1]; HT22 cells, glutamate) | EC50 [1, 4] [µM] | Emax [1, 5] [%] | protection from oxidative stress-induced death ([1]; at 2.5 μM) [%] | TEAC [2] | increasing the levels of Nrf2 and inducing HO-1 synthesis [3] | effect of higher levels of BSO on protection ([1]; 24 hours, MTT) | TEAC ([2]; listed as 3,7,3,′4′-THF (fisetin)) | effect of inhibition of ERK activation (PD98059) on Nrf2 and HO-1 induction ([3]; PD98059 pretreatment)
1 | O=c1c(O)c(-c2ccc(O)c(O)c2)oc2ccccc12 [3,3′,4′-THF, 3,3′,4′-trihydroxyflavone] | significantly reduced protection | 0.75 | equal to or more effective than fisetin | 1 | > 90 | > 85 | 2.07 ± 0.06 | fairly effective | – | – | –
2 | O=c1cc(-c2ccc(O)c(O)c2)oc2ccccc12 [3′,4′-DHF, 3′,4′-dihydroxyflavone] | – | – | more effective than fisetin; also recorded: equal to or more effective than fisetin | 0.9 | > 90 | – | 1.24 ± 0.08 | weakly active | reduced protection | – | –
3 | O=c1c(O)c(-c2ccc(O)c(O)c2)oc2cc(O)ccc12 [fisetin, 3,3′,4′,7-tetrahydroxyflavone] | – | – | – | 5 | > 90 | – | ~3 | best of the group | reduced protection | 3.11 ± 0.20 | no effect
